Results on one compound are retold here after patent US20230266302A1, “SYNTHESIS AND USE OF N-BENZYL SULFONAMIDES” (THE UNIVERSITY OF TULSA, priority 2020, published 2023).

The test system of one test is BxPC3 (pancreatic cancer). The test can be described thus: ATP level assay (CellTiter-Glo), percent of control. The class given is cell-based. The conditions noted are these: Homo sapiens, BXPC-3, 2 h; compound alone, 100 uM, two hour incubation, control DMSO; read-out: POC (percent of control) BxPC3. From the text: (§1) In the present method, the method of using the available assays has been modified to measure the short-term effect of compounds of interest on ATP levels in the cells. […] In the modified method, the control and test cells are initially treated with the metabolic inhibitor for a period of about thirty minutes to about four hours. Typically, the treatment of the cells with the metabolic inhibitor is for one hour prior to adding the compound to be screened for anti-cancer properties. However, simultaneous treatment with the metabolic inhibitor and the compound being screened should provide satisfactory results. […] ATP synthesis in cells occurs over multiple biochemical pathways. These pathways are very responsive to metabolic inhibitors and/or changes in available nutrients. By incorporating a metabolic inhibitor which is known to impact certain pathways, the disclosed method provides for measurement of a compound's direct effects on the remaining metabolic pathways available for ATP synthesis in the cell.
(§2) Following treatment of the control and test cells with the metabolic inhibitor, the method calls for addition of the compound to be screened for anti-cancer properties to the cells. Following addition of the compound of interest, the assay is allowed to continue for about one hour to about four hours or depending on the luminescing agent up to eighteen hours. However, approximately 60 minutes will be sufficient to determine the ATP inhibiting effect of the compound to be screened on the cells. Following completion of the selected time period, the ATP level within the cell is determined. ATP levels can be determined by luminescence according to standard measuring procedures, i.e. the luminescence level of the assay from the living cells treated with the two component composition is compared to the luminescence level of the assay from the living cells without the two component composition, i.e., the control experiment. Thus, the ATP levels are determined without killing the cells during the incubation of the cells in the presence of the compound of interest. As a result, the measured reduction in ATP level corresponds directly to the inhibition of the metabolic pathways uninhibited by the metabolic blocker.
(§3) A wide variety of ATP luminescing detection reagents are available commercially. So long as the reagent produces a luminescence in the presence of ATP, the reagent will be suitable for use in the present method. Suitable reagents include but are not limited to any ATP dependent luciferase such as but not limited to firefly luciferase, other modified luciferase based reagents, i.e. luciferase derivatives. According to the rapid method for determining the anti-cancer activity of a compound, a sample of living cells is distributed across a number of testing wells. Typically, 96-well plates are used; however, the number of wells is not critical to the current method. When using a 96-well plate the number of living cells will commonly be about 20,000. The sample wells contain a cell growth medium to promote cell health and growth and an additive to prevent bacterial contamination of the wells. One common example of the cell growth medium is DMEM with 10% FBS as described above. One example of the additive to prevent bacterial contamination is a solution of penicillin G and streptomycin referred to commonly as Pen-Strep. The Pen-Strep solution typically contains 5000 units of penicillin G and 5000 micrograms of streptomycin. Thus, the rapid determination of anti-cancer compounds can be carried out using the following method. • The desired number of cells are distributed in a 96-well plate containing 100 μL DMEM plus 10% FBS with optional Pen-Strep. • After 24 hours, cells are treated with the compound of interest or a 5% solution of dimethyl sulfoxide (DMSO) in water as a control. • The time period for exposure to the compound of interest and the DMSO control will vary depending on the luminescing detection reagent. […]
(ATP-based viability assays read luminescence as a measure of living cells.)
Consider `O=[N+]([O-])c1cccc(S(=O)(=O)NCc2c[nH]c3ccccc23)c1` [Compound 25, N-(1H-indol-3-ylmethyl)-3-nitrobenzenesulfonamide], for which the activity at 100 µM was 85.1%.

Still in this test, the particulars now being: compound 100 uM + 2DG (about 10-20 mM), two hour incubation.
On to `O=[N+]([O-])c1cccc(S(=O)(=O)NCc2c[nH]c3ccccc23)c1` [Compound 25, N-(1H-indol-3-ylmethyl)-3-nitrobenzenesulfonamide], for which the “POC (percent of control) BxPC3” value is 71.5% of control.

Staying with this test, now noted: compound 100 uM + rotenone (approximately 1.25 μM), two hour incubation.
As for `O=[N+]([O-])c1cccc(S(=O)(=O)NCc2c[nH]c3ccccc23)c1` [Compound 25, N-(1H-indol-3-ylmethyl)-3-nitrobenzenesulfonamide], the “POC (percent of control) BxPC3” value is reported as 78.2% of control.

In another test the test system is H293 (kidney cancer). The test is described as above. Format: cell-based. The conditions noted are these: 2 h; compound alone, 100 uM, two hour incubation, control DMSO; read-out: POC (percent of control) H293.
From the text: as §1, §2, §3
For `O=[N+]([O-])c1cccc(S(=O)(=O)NCc2c[nH]c3ccccc23)c1` [Compound 25, N-(1H-indol-3-ylmethyl)-3-nitrobenzenesulfonamide], the activity at 100 µM worked out at 99.7%.

The same test, now with this note: compound 100 uM + 2DG (about 10-20 mM), two hour incubation.
Turning to `O=[N+]([O-])c1cccc(S(=O)(=O)NCc2c[nH]c3ccccc23)c1` [Compound 25, N-(1H-indol-3-ylmethyl)-3-nitrobenzenesulfonamide], the “POC (percent of control) H293” value is given as 79.6% of control.

Still in this test, the particulars now being: compound 100 uM + rotenone (approximately 1.25 μM), two hour incubation.
Regarding `O=[N+]([O-])c1cccc(S(=O)(=O)NCc2c[nH]c3ccccc23)c1` [Compound 25, N-(1H-indol-3-ylmethyl)-3-nitrobenzenesulfonamide], the “POC (percent of control) H293” value is reported as 68.8% of control.

The test system of a further test is HDF (normal cells). Described as above. The class given is cell-based. Conditions: 2 h; compound alone, 100 uM, two hour incubation, control DMSO; read-out: POC (percent of control) HDF.
From the text: as §1, §2, §3
`O=[N+]([O-])c1cccc(S(=O)(=O)NCc2c[nH]c3ccccc23)c1` [Compound 25, N-(1H-indol-3-ylmethyl)-3-nitrobenzenesulfonamide]: the activity at 100 µM came out at 79.2%.

Staying with this test, now noted: compound 100 uM + 2DG (about 10-20 mM), two hour incubation.
In the case of `O=[N+]([O-])c1cccc(S(=O)(=O)NCc2c[nH]c3ccccc23)c1` [Compound 25, N-(1H-indol-3-ylmethyl)-3-nitrobenzenesulfonamide], the “POC (percent of control) HDF” value was 93.6% of control.

The test is the same for the next values; noted with them: compound 100 uM + rotenone (approximately 1.25 μM), two hour incubation.
With `O=[N+]([O-])c1cccc(S(=O)(=O)NCc2c[nH]c3ccccc23)c1` [Compound 25, N-(1H-indol-3-ylmethyl)-3-nitrobenzenesulfonamide], the “POC (percent of control) HDF” value is listed as 95.5% of control.

The subject of the next test is HeLa (cervical cancer). The test is described as above. The class given is cell-based. The conditions noted are these: Homo sapiens, HeLa, 2 h; compound alone, 100 uM, two hour incubation, control DMSO; read-out: POC (percent of control) HeLa.
From the text: as §1, §2, §3
In the case of `O=[N+]([O-])c1cccc(S(=O)(=O)NCc2c[nH]c3ccccc23)c1` [Compound 25, N-(1H-indol-3-ylmethyl)-3-nitrobenzenesulfonamide], the activity at 100 µM is 89.4%.

Still in this test, the particulars now being: compound 100 uM + 2DG (about 10-20 mM), two hour incubation.
Turning to `O=[N+]([O-])c1cccc(S(=O)(=O)NCc2c[nH]c3ccccc23)c1` [Compound 25, N-(1H-indol-3-ylmethyl)-3-nitrobenzenesulfonamide], the “POC (percent of control) HeLa” value is 90.8% of control.

Staying with this test, now noted: compound 100 uM + rotenone (approximately 1.25 μM), two hour incubation.
Take `O=[N+]([O-])c1cccc(S(=O)(=O)NCc2c[nH]c3ccccc23)c1` [Compound 25, N-(1H-indol-3-ylmethyl)-3-nitrobenzenesulfonamide]: the “POC (percent of control) HeLa” value is reported as 95.6% of control.

The test system of the next test is MCF10A (non-cancerous breast). The description is as above. The class given is cell-based. Conditions: Homo sapiens, MCF-10A, 2 h; compound alone, 100 uM, two hour incubation, control DMSO; read-out: POC (percent of control) MCF10A.
From the text: as §1, §2, §3
`O=[N+]([O-])c1cccc(S(=O)(=O)NCc2c[nH]c3ccccc23)c1` [Compound 25, N-(1H-indol-3-ylmethyl)-3-nitrobenzenesulfonamide]: the activity at 100 µM is 95.7%.

The same test, now with this note: compound 100 uM + 2DG (about 10-20 mM), two hour incubation.
Regarding `O=[N+]([O-])c1cccc(S(=O)(=O)NCc2c[nH]c3ccccc23)c1` [Compound 25, N-(1H-indol-3-ylmethyl)-3-nitrobenzenesulfonamide], the “POC (percent of control) MCF10A” value is recorded as 98.3% of control.

Staying with this test, now noted: compound 100 uM + rotenone (approximately 1.25 μM), two hour incubation.
With `O=[N+]([O-])c1cccc(S(=O)(=O)NCc2c[nH]c3ccccc23)c1` [Compound 25, N-(1H-indol-3-ylmethyl)-3-nitrobenzenesulfonamide], the “POC (percent of control) MCF10A” value is recorded as 80.4% of control.

Another test concerns MCF7 (breast cancer). Described as above. Format: cell-based. The conditions noted are these: Homo sapiens, MCF7, 2 h; compound alone, 100 uM, two hour incubation, control DMSO; read-out: POC (percent of control) MCF7.
From the text: as §1, §2, §3
Regarding `O=[N+]([O-])c1cccc(S(=O)(=O)NCc2c[nH]c3ccccc23)c1` [Compound 25, N-(1H-indol-3-ylmethyl)-3-nitrobenzenesulfonamide], the activity at 100 µM came to 112%.
